This is an account of results in paper PMC9636186 (Nature Communications, 2022).

The structures appear in SMILES notation.

The target of the assay is T1, IBD (ItcR itaconate-binding domain) (Yersinia pseudotuberculosis, UniProt A0A0H3B558).
T1 construct: gene YPK_2265
The conditions noted are these: protein:itaconate molar ratio 1:100, Bis-Tris pH 6.5, PEG300, 20 °C; SeMet form 7W06.

T1 sequence (A0A0H3B558 80-292 limits assumed): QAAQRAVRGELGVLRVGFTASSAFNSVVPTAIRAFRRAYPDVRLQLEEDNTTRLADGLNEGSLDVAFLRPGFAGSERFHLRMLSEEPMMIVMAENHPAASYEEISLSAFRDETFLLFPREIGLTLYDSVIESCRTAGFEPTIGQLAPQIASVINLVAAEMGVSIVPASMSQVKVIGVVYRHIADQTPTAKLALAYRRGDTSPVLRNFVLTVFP

In the case of `C=C(CC(=O)O)C(=O)O` [itaconate], the structure of complex entry was “crystal structure of IBD without or with itaconate binding was determined”.
